Data from US9670173B2, “Dicarboxylic acid compound” (DAIICHI SANKYO COMPANY, LIMITED, priority 2013, dated 2017).

test system: male SD rats; assay: Rat 33P phosphate oral challenge test (intestinal phosphate absorption suppression test); type: in vivo; conditions: fasted, 30 mg/kg forcible oral administration, 33P phosphate solution given 30 min later, serum radioactivity AUC0-60min versus control group
Description: (Test Example) Rat ^33P Phosphate Oral Challenge Test (Intestinal Phosphate Absorption Suppression Test)
Using male SD rats (5-7 week old) that had been fasted on the previous day, the compound described in Examples was suspended or dissolved in a solvent such as 0.5% methyl cellulose (3-6 mg/mL), and the thus obtained solution was administered to each rat at a dose of 30 mg/kg by a forcible oral administration. On the other hand, regarding a control group, the solvent was administered to each rat at a dose of 5 mL/kg. Thirty minutes after the administration, a ^33P phosphate solution (8.3 mM NaH2PO4, 0.35 MBq/mL) was administered to the rats at a dose of 7.2 mL/kg by a forcible oral administration. Then, 15, 30, 60, and 120 minutes after the administration, blood was collected from the jugular vein of each rat under anesthesia with isoflurane. The radioactivity in 50 μL of serum was measured using a liquid scintillation counter, and the AUC0-60min was then calculated from the radioactivity value. The obtained value was defined as an amount of phosphate absorbed. The phosphate absorption-inhibiting activity of the compound was calculated according to the following expression. Phosphate absorption-inhibiting activity (%)=[[…]the amount of phosphate absorbed of the control group]×100

Which “Phosphorus absorption-inhibiting activity (%)” value does the source give for CCN([C@H]1CC[C@H](C(=O)O)CC1)S(=O)(=O)c1cccc(C(=O)Nc2ccc(Br)cc2C(=O)Nc2ccc(CCc3ccc(C(=O)O)cc3)cc2)c1 [Example 4, Dipotassium 4-[2-(4-{[5-bromo-2-({3-[(trans-4-carboxylatocyclohexyl)(ethyl)sulfamoyl]benzoyl}amino)benzoyl]amino}phenyl)ethyl]benzoate] here?
The value was 42%.

With CCN([C@H]1CC[C@H](C(=O)[O-])CC1)S(=O)(=O)c1cccc(C(=O)Nc2ccc(N3CCCC3)cc2C(=O)Nc2ccc(CCc3ccc(C(=O)[O-])cc3)cc2)c1.[K+].[K+] [Example 10, Dipotassium 4-[2-(4-{[2-({3-[(trans-4-carboxylatocyclohexyl)(ethyl)sulfamoyl]benzoyl}amino)-5-(pyrrolidin-1-yl)benzoyl]amino}phenyl)ethyl]benzoate] as the molecule, how does the “Phosphorus absorption-inhibiting activity (%)” value read?
The value was 53%.

CCN([C@H]1CC[C@H](C(=O)O)CC1)S(=O)(=O)c1cccc(C(=O)Nc2ccc(N3CCCCC3)cc2C(=O)Nc2ccc(CCc3ccc(C(=O)O)cc3)cc2)c1 [Example 12, Dipotassium 4-[2-(4-{[2-({3-[(trans-4-carboxylatocyclohexyl)(ethyl)sulfamoyl]benzoyl}amino)-5-(piperidin-1-yl)benzoyl]amino}phenyl)ethyl]benzoate] was tested. Which “Phosphorus absorption-inhibiting activity (%)” value did it give?
Its value is 79%.

Which “Phosphorus absorption-inhibiting activity (%)” value does the source give for CCN(CC)c1ccc(NC(=O)c2cccc(S(=O)(=O)N(CC)[C@H]3CC[C@H](C(=O)O)CC3)c2)c(C(=O)Nc2ccc(CCc3ccc(C(=O)O)cc3)cc2)c1 [Example 14, Dipotassium 4-[2-(4-{[2-({3-[(trans-4-carboxylatocyclohexyl)(ethyl)sulfamoyl]benzoyl}amino)-5-(diethylamino)benzoyl]amino}phenyl)ethyl]benzoate] here?
The value was 76%.

Which “Phosphorus absorption-inhibiting activity (%)” value does the source give for CCN([C@H]1CC[C@H](C(=O)[O-])CC1)S(=O)(=O)c1cccc(C(=O)Nc2ccc(OCC3CC3)cc2C(=O)Nc2ccc(CCc3ccc(C(=O)[O-])cc3)cc2)c1.[K+].[K+] [Example 15, Dipotassium 4-[2-(4-{[2-({3-[(trans-4-carboxylatocyclohexyl)(ethyl)sulfamoyl]benzoyl}amino)-5-(cyclopropylmethoxy)benzoyl]amino}phenyl)ethyl]benzoate] here?
The value was 82%.

Which “Phosphorus absorption-inhibiting activity (%)” value does the source give for CCN([C@H]1CC[C@@H](C(=O)O)CC1)S(=O)(=O)c1cccc(C(=O)Nc2ccc(N3CCCCC3)cc2C(=O)Nc2ccc(CCc3ccc(C(=O)O)cc3)cc2)c1 [Example 26, Dipotassium 4-[2-(4-{[2-({3-[(cis-4-carboxylatocyclohexyl)(ethyl)sulfamoyl]benzoyl}amino)-5-(piperidin-1-yl)benzoyl]amino}phenyl)ethyl]benzoate] here?
The value was 60%.

How did the “Phosphorus absorption-inhibiting activity (%)” value turn out when O=C([O-])c1ccc(CCc2ccc(NC(=O)c3cc(N4CCCCC4)ccc3NC(=O)c3cccc(S(=O)(=O)N(C4CC4)[C@H]4CC[C@H](C(=O)[O-])CC4)c3)cc2)cc1.[K+].[K+] [Example 27, Dipotassium 4-[2-(4-{[2-({3-[(trans-4-carboxylatocyclohexyl)(cyclopropyl)sulfamoyl]benzoyl}amino)-5-(piperidin-1-yl)benzoyl]amino}phenyl)ethyl]benzoate] was run?
Its value is 57%.

For CCN([C@H]1CC[C@H](C(=O)[O-])CC1)S(=O)(=O)c1cccc(C(=O)Nc2ccc(N3CCCCC3)cc2C(=O)Nc2ccc(CCc3ccc(C(=O)[O-])cc3)cc2)c1.[Na+].[Na+] [Example 28, Disodium 4-[2-(4-{[2-({3-[(trans-4-carboxylatocyclohexyl)(ethyl)sulfamoyl]benzoyl}amino)-5-(piperidin-1-yl)benzoyl]amino}phenyl)ethyl]benzoate], which “Phosphorus absorption-inhibiting activity (%)” value is on record?
Its value is 60%.

For CCN(CC)c1ccc(NC(=O)c2cccc(S(=O)(=O)N(CC)[C@H]3CC[C@H](C(=O)[O-])CC3)c2)c(C(=O)Nc2ccc(CCc3ccc(C(=O)[O-])cc3)cc2)c1.[Na+].[Na+] [Example 29, Disodium 4-[2-(4-{[2-({3-[(trans-4-carboxylatocyclohexyl)(ethyl)sulfamoyl]benzoyl}amino)-5-(diethylamino)benzoyl]amino}phenyl)ethyl]benzoate], which “Phosphorus absorption-inhibiting activity (%)” value is on record?
The value was 72%.

With CCN([C@H]1CC[C@H](C(=O)O)CC1)S(=O)(=O)c1cccc(C(=O)Nc2ccc(OCC3CC3)cc2C(=O)Nc2ccc(CCc3ccc(C(=O)O)cc3)cc2)c1 [Example 30, Disodium 4-[2-(4-{[2-({3-[(trans-4-carboxylatocyclohexyl)(ethyl)sulfamoyl]benzoyl}amino)-5-(cyclopropylmethoxy)benzoyl]amino}phenyl)ethyl]benzoate] as the molecule, how does the “Phosphorus absorption-inhibiting activity (%)” value read?
The value was 69%.
